Source: patent US12357711B2, “PSMA binding dual mode radiotracer and therapeutic” (Technische Universität München, priority 2019, dated 2025)
Where “and” joins values, the source holds several entries; their conditions need not be identical. Identical values can stand only once.

Columns and labels:
patients = assay: Human biodistribution and uptake in tumor lesions (PET/CT, SUV); assay type: in vivo; details: for ratio SUVmax to background, mean / ratio SUVmean to background, mean: human PET/CT, background gluteal muscle
Protocol: Human biodistribution was estimated by analysing clinical ^18F-rhPSMA-7- and ^18F-rhPSMA-7.3-PET/CT exams in 47 and 32 patients, respectively.
The mean and maximum standardized uptake values (SUVmean/SUVmax) were determined for background (gluteal muscle), normal organs (salivary glands, blood pool, lung, liver, spleen, pancreas, duodenum, kidney, bladder, bone) and three representative tumor lesions. Tumor uptake was analyzed in 89 lesions (26 primary tumors/local recurrences, 23 bone, 38 lymph node and 2 visceral metastases) and 63 lesions (14 primary tumors/local recurrences, 30 bone, 18 lymph node and 1 visceral metastases) for ^18F-rhPSMA-7 and ^18F-rhPSMA-7.3, respectively.
Organ-background and Tumor-background ratios were calculated.

human serum albumin = target: T1, human serum albumin (Homo sapiens, UniProt P02768); assay: HSA binding on Chiralpak HSA column; assay type: in vitro ADME; details: Chiralpak HSA column (50 × 3 mm, 5 μm)
T1 construct: purchased H13H-2433

[1] = system: LNCaP tumor-bearing SCID mice; assay: Biodistribution at 1 h p.i.; assay type: in vivo
Protocol: FIG. 10: Biodistribution (in % ID/g) of ^18E-labeled rhPSMA tracers at 1 h p.i in LNCaP tumor-bearing SCID mice. Data are expressed as mean±SD (n=4 for rhPSMA7.1, n=5 for 7.2, n=4 for 7.3, n=5 for 7.4 and n=3 for 7-rac).

[2] = clinical PET/CT, gluteal muscle
[3] = clinical PET/CT, non-diseased bone
[4] = clinical PET/CT, listed as 18F-rhPSMA-7.3

T1 sequence (P02768 25-609): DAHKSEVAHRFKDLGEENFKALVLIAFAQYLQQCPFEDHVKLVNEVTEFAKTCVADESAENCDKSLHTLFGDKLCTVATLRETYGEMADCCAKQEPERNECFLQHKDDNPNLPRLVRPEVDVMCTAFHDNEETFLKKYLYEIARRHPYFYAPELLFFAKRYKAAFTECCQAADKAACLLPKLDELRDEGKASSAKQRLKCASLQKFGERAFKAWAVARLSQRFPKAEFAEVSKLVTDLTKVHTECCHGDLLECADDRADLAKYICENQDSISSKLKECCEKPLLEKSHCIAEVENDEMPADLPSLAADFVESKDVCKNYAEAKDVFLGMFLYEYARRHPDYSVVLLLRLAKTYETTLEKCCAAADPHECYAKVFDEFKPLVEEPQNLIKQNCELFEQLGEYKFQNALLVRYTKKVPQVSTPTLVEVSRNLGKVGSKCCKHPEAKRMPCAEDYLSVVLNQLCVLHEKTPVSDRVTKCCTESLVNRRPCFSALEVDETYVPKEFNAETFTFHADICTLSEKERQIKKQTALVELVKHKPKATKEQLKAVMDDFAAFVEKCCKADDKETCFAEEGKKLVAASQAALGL

## CC(C)(C)[Si](F)(c1ccc(C(=O)NC[C@@H](NC(=O)CC[C@@H](C(=O)O)N2CCN(CC(=O)[O-])CCN(CC(=O)[O-])CCN(CC(=O)[O-])CC2)C(=O)N[C@H](CCCCNC(=O)CCC(=O)NCCC[C@@H](NC(=O)CC[C@H](NC(=O)N[C@@H](CCC(=O)O)C(=O)O)C(=O)O)C(=O)O)C(=O)O)cc1)C(C)(C)C.[Ga+3] [rhPSMA7.3, [^19F][^natGa]D-Dap-S-DOTAGA-rhPSMA7]
patients; bladder
  ratio SUVmax to background, mean: 3.1
  ratio SUVmean to background, mean: 3.1
patients; bloodpool
  ratio SUVmax to background, mean: 2.8
  ratio SUVmean to background, mean: 2.9
patients; bone
  ratio SUVmax to background, mean: 2.0
  ratio SUVmean to background, mean: 2.1
patients; clinical PET/CT
  SUVmax bladder, max: 6.0
  SUVmax bladder, mean: 3.1
  SUVmax bladder, min: 1.1
  SUVmax bloodpool, max: 3.9
  SUVmax bloodpool, mean: 2.8
  SUVmax bloodpool, min: 1.9
  SUVmax duodenum, max: 32.2
  SUVmax duodenum, mean: 16.4
  SUVmax duodenum, min: 6.1
  SUVmax kidney, max: 99.9
  SUVmax kidney, mean: 51.9
  SUVmax kidney, min: 30.9
  SUVmax liver, max: 15.4
  SUVmax liver, mean: 9.7
  SUVmax liver, min: 4.6
  SUVmax lungs, max: 1.9
  SUVmax lungs, mean: 1.1
  SUVmax lungs, min: 0.7
  SUVmax pancreas, max: 7.8
  SUVmax pancreas, mean: 4.2
  SUVmax pancreas, min: 2.4
  SUVmax parotic gland, max: 38.3
  SUVmax parotic gland, mean: 24.6
  SUVmax parotic gland, min: 11.2
  SUVmax spleen, max: 22.5
  SUVmax spleen, mean: 11.4
  SUVmax spleen, min: 5.0
  SUVmax submandibular gland, max: 47.4
  SUVmax submandibular gland, mean: 28.4
  SUVmax submandibular gland, min: 14.6
  SUVmean bladder, max: 4.1
  SUVmean bladder, min: 0.7
  SUVmean bloodpool, max: 2.5
  SUVmean bloodpool, min: 1.3
  SUVmean duodenum, max: 23.0
  SUVmean duodenum, mean: 11.0
  SUVmean duodenum, min: 3.0
  SUVmean kidney, max: 70.6
  SUVmean kidney, mean: 35.5
  SUVmean kidney, min: 20.7
  SUVmean liver, max: 12.3
  SUVmean liver, mean: 7.3
  SUVmean liver, min: 3.2
  SUVmean lungs, max: 1.1
  SUVmean lungs, mean: 0.7
  SUVmean lungs, min: 0.4
  SUVmean pancreas, max: 5.2
  SUVmean pancreas, mean: 2.8
  SUVmean pancreas, min: 1.6
  SUVmean parotic gland, max: 25.0
  SUVmean parotic gland, mean: 16.0
  SUVmean parotic gland, min: 8.2
  SUVmean spleen, max: 17.9
  SUVmean spleen, mean: 8.5
  SUVmean spleen, min: 3.7
  SUVmean submandibular gland, max: 33.4
  SUVmean submandibular gland, mean: 19.6
  SUVmean submandibular gland, min: 10.4
  tracer retention in the bladder compared with ^18F-rhPSMA-7: significantly lower
  uptake in tumor lesions compared with ^18F-rhPSMA-7: significantly higher
patients; [2]
  SUVmax background, max: 1.7
  SUVmax background, mean: 1.0
  SUVmax background, min: 0.6
  SUVmean background, max: 1.1
  SUVmean background, mean: 0.7
  SUVmean background, min: 0.4
patients; [3]
  SUVmax bone, max: 3.4
  SUVmax bone, mean: 2.1
  SUVmax bone, min: 1.1
  SUVmean bone, max: 2.2
  SUVmean bone, mean: 1.3
  SUVmean bone, min: 0.7
patients; clinical PET/CT, tumor lesions
  SUVmax tumor, max: 316.0
  SUVmax tumor, mean: 44.0
  SUVmax tumor, min: 2.4
  SUVmean tumor, max: 224.1
  SUVmean tumor, min: 1.6
patients; clinical PET/CT, tumor lesions, listed as 18F-rhPSMA-7.3
  SUVmean tumor, mean: 32.5±42.7 and 32.5
patients; [4]
  SUVmean bladder, mean: 2.0 and 2.0±0.8
  SUVmean bloodpool, mean: 1.9 and 1.8
patients; duodenum
  ratio SUVmax to background, mean: 16.2
  ratio SUVmean to background, mean: 17.1
patients; kidney
  ratio SUVmax to background, mean: 51.8
  ratio SUVmean to background, mean: 55.6
patients; liver
  ratio SUVmax to background, mean: 9.7
  ratio SUVmean to background, mean: 11.4
patients; lungs
  ratio SUVmax to background, mean: 1.0
  ratio SUVmean to background, mean: 1.0
patients; pancreas
  ratio SUVmax to background, mean: 4.1
  ratio SUVmean to background, mean: 4.4
patients; parotid gland
  ratio SUVmax to background, mean: 24.7
  ratio SUVmean to background, mean: 25.2
patients; spleen
  ratio SUVmax to background, mean: 11.4
  ratio SUVmean to background, mean: 13.3
patients; submandibular gland
  ratio SUVmax to background, mean: 28.2
  ratio SUVmean to background, mean: 30.6
patients; tumor lesions
  ratio SUVmax to background, mean: 43.6
  ratio SUVmean to background, mean: 50.8
Human serum albumin
  HSA Binding: 96.9%
[1]
  Biodistribution adrenals: 2.2 ± 0.83 % ID/g
  Biodistribution blood: 0.96 ± 0.24 % ID/g
  Biodistribution bone: 0.38 ± 0.32 % ID/g
  Biodistribution heart: 0.87 ± 0.17 % ID/g
  Biodistribution intestine: 0.35 ± 0.07 % ID/g
  Biodistribution kidneys: 292 ± 45.1 % ID/g
  Biodistribution liver: 0.69 ± 0.13 % ID/g
  Biodistribution lung: 2.2 ± 0.35 % ID/g
  Biodistribution muscle: 0.33 ± 0.15 % ID/g
  Biodistribution pancreas: 0.63 ± 0.44 % ID/g
  Biodistribution spleen: 16.6 ± 2.6 % ID/g
  Biodistribution stomach: 0.44 ± 0.23 % ID/g
[1]; LNCaP tumor
  Biodistribution tumor: 18.3 ± 7.2 % ID/g
